{"source": "patent US20200190090A1", "about": "“OREXIN RECEPTOR ANTAGONISTS” (BENEVOLENTAI BIO LIMITED, priority 2017, published 2020)", "key": {"[1]": {"biological_target": "T1, human recombinant OX1 (hOX1R) receptor (Homo sapiens, UniProt O43613)", "T1 construct": "expressed in transfected cells; host or cells: CHO cell line (membranes)", "T1 sequence (O43613 1-425)": "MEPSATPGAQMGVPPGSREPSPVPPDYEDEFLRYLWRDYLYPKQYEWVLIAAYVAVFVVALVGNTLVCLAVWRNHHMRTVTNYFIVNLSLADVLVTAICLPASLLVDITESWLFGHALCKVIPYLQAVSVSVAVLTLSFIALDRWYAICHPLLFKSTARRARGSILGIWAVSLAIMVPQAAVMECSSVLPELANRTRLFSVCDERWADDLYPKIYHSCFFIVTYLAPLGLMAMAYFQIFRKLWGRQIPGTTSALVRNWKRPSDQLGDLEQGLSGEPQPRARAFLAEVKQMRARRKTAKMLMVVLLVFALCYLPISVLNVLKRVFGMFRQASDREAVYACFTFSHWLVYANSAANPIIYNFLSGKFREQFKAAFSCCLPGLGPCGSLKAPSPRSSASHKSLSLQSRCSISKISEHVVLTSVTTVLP", "test": "Scintillation Proximity binding Assay (SPA), [3H]-SB674042 displacement, membranes of CHO cell line transformed with hOX1R", "details": "for Ki: 60 min, Cheng-Prusoff from IC50, geometric mean, read-out: hOX1R Binding pKi (60 min) (converted); for IC50: SPA, [3H]-SB674042, room temperature (19° C.), GeoMean, read-out: IC50 OX1R", "procedure": "(§1) The in vitro binding affinity of 6-[(3aS,4S,6aR)-5-(2-fluoro-4-methoxybenzoyl)-4-methyl-octahydropyrrolo[3,4-c]pyrrol-2-yl]-2,4-dimethylpyridine-3-carbonitrile 3278/6 (the compound of Example 1) for human recombinant OX1 (hOX1R) and OX2 (hOX2R) receptors was determined using a Scintillation Proximity binding Assay (SPA).\n(§2) A 96-well plate SPA was developed using antagonist radioligands (OX-radioligands); [3H]-SB674042 (Langmead et al., 2004; Malherbe et al., 2009a) for hOX1R and [3H]-EMPA (Malherbe et al., 2009b) for hOX2R. Cell membranes were prepared from recombinant cell lines; a CHO cell line transformed with hOX1R (GeneBank accession # NM_001525) and a HEK cell line transformed with hOX2R (GeneBank accession # NM_001526.2).\n(§3) On the day of the assay, membranes containing hOX1R or hOX2R were captured onto SPA-beads. All test compounds were dissolved in 100% DMSO as 10 mM stock solutions, and prepared as 8-point semi-log dilution in 100% DMSO immediately prior to assay (final assay range 5 uM to 0.064 nM). The compound of Example 1 was co-administered with the appropriate OX-radioligand, and the SPA-membrane preparation added to initiate the assay. During the assay, any compound of Example 1 that bound to the receptors competed with radioligand and reduced the assay signal. Assay plates were read using PerkinElmer Microbeta2 allowing the binding profile of the compound of Example 1 to be assessed at room temperature (19° C.) over several time points (15, 60, 90, 120, 150 minutes, and 18 hours) in hOX1R and hOX2R assay formats.\n(§4) End-point data values were determined as Specific Binding (SB) and expressed as a percentage of control (% SB), with 100% being the SB of OX-radioligand in the absence of competing unlabelled ligand, and 0% being the SB of the relevant OX-radioligand in the presence of an excess of the competing cold/unlabelled ligand (Suvorexant; a dual OXR-antagonist [DORA]).\n(§5) TB=Total Bound (in presence of 0.5% DMSO); NSB=Non Specific Bound (in the presence of Suvorexant at 1 μM)=0%;\n(§6) SB=Specific Bound (TB-NSB)=100%\n(§7) Assay data were used to determine half maximal inhibitory concentration (IC50) using a four-parameter logistic model in XLfit and/or GraphPad Prism v5. IC50 were derived from plots of % SB against log 10 of the concentration of the compound of Example 1. The pKi were calculated from the IC50 using the Cheng-Prusoff correction: […]=IC50/(1+([L]/KD)) where [L] is the radioligand concentration in the displacement assay, and KD is the dissociation constant of the radioligand.\n(§8) The Selectivity value is derived from the Ki [Ki (OX2R)/Ki(OX1R)].\n(§9) was prepared and tested by analogous methods to those described above in Example 1 and Example 2 in respect of the compound of Example 1."}, "[2]": {"biological_target": "T2, human recombinant OX2 (hOX2R) receptor (Homo sapiens, UniProt O43614)", "T2 construct": "expressed in transfected cells; host or cells: HEK cell line (membranes)", "T2 sequence (O43614 1-444)": "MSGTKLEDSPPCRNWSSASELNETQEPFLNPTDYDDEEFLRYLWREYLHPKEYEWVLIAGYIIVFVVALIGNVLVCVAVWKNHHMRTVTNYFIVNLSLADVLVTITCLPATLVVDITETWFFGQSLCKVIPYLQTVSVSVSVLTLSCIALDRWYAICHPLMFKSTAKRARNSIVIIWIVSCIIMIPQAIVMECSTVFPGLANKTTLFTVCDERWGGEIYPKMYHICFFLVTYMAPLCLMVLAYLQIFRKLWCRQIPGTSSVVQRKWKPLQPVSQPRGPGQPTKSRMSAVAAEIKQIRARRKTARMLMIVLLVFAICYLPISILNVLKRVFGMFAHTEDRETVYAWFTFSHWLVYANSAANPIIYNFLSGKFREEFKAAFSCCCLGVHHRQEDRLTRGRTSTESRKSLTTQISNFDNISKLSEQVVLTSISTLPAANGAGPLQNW", "test": "Scintillation Proximity binding Assay (SPA), [3H]-EMPA displacement, membranes of HEK cell line transformed with hOX2R", "details": "for Ki: 60 min, Cheng-Prusoff from IC50, geometric mean, read-out: hOX2R Binding pKi (60 min) (converted); for Selectivity OX2R/OX1R: selectivity calculated using Ki (Ox2R)/Ki(Ox1R)", "procedure": "as §1, §2, §3, §4, §5, §6, §7, §8, §9"}, "[3]": {"details": "SPA, [3H]-EMPA, room temperature (19° C.), GeoMean, read-out: IC50 OX2R"}, "[4]": {"details": "data at 60 min, read-out: OX2R pIC50 (converted)"}}, "note": "Where two headings read alike, the source gives them in different places."}
{"smiles": "COc1ccc(C(=O)N2C[C@H]3CN(c4cc(C)c(C#N)c(C)n4)C[C@H]3[C@@H]2C)c(F)c1", "note": "[Example 1, 6-[(3aS,4S,6aR)-5-(2-fluoro-4-methoxybenzoyl)-4-methyl-octahydropyrrolo[3,4-c]pyrrol-2-yl]-2,4-dimethylpyridine-3-carbonitrile]", "values": [{"measurement": "affinity for hOX1R (in words)", "setting": "[1]", "value": "high affinity"}, {"measurement": "Ki", "setting": "[1]", "value": 0.0479, "unit": "µM"}, {"measurement": "IC50", "setting": "[1]", "value": 0.0977, "unit": "µM"}, {"measurement": "affinity for hOX2R (in words)", "setting": "[2]", "value": "high affinity"}, {"measurement": "Ki", "setting": "[2]", "value": 0.000724, "unit": "µM"}, {"measurement": "IC50", "setting": "[2]; [3]", "value": 0.00123, "unit": "µM"}, {"measurement": "affinity for hOX2R compared with comparative Example A (in words)", "setting": "[2]; comparison", "value": "higher affinity"}, {"measurement": "IC50", "setting": "[2]; [4]", "value": 0.00123, "unit": "µM"}, {"measurement": "hOX2R Selectivity (IC50 hOX2R/hOX1R)", "setting": "[2]; head says IC50 ratio", "value": 69}, {"measurement": "selectivity for hOX2R", "setting": "[2]; over hOX1R", "value": 69, "unit": "fold"}, {"measurement": "hOX2R Binding Equilibration Time", "setting": "[2]; room temperature (19° C.)", "value": 38, "unit": "min"}, {"measurement": "Selectivity OX2R/OX1R", "setting": "[2]", "value": 69}]}
{"smiles": "COc1ccc(C(=O)N2C[C@@H]3CN(c4cc(C)c(C#N)c(C)n4)C[C@@H]3C2)c(F)c1", "note": "[Example A, 6-[(3aS,4S,6aR)-5-(2-fluoro-4-methoxybenzoyl)-octahydropyrrolo[3,4-c]pyrrol-2-yl]-2,4-dimethylpyridine-3-carbonitrile, reference compound]", "values": [{"measurement": "Ki", "setting": "[1]", "value": 3.63, "unit": "µM"}, {"measurement": "IC50", "setting": "[1]", "value": 7.84, "unit": "µM"}, {"measurement": "Ki", "setting": "[2]", "value": 0.0851, "unit": "µM"}, {"measurement": "OX2R Selectivity (IC50 OX1R/OX2R)", "setting": "[2]; IC50 ratio", "value": 52}, {"measurement": "IC50", "setting": "[2]; [3]", "value": 0.15, "unit": "µM"}, {"measurement": "IC50", "setting": "[2]; [4]", "value": 0.151, "unit": "µM"}, {"measurement": "Selectivity OX2R/OX1R", "setting": "[2]", "value": 43}]}
